Measurements as given in patent US9458128B2, “Catechol O-methyltransferase activity inhibiting compounds” (Orion Corporation, priority 2012, dated 2016).

system: not listed separately; test: Determination of levodopa concentration in rat plasma; format: in vivo; settings: entacapone = 1.00, adult male Wistar rats, COMT inhibitor dosed orally with levodopa+carbidopa
Method: Levodopa concentration in rat plasma was determined substantially as described in e.g. Kim, T. K. et al. European Journal of Pharmaceutical Sciences, 38 (2009) 525. The studies were performed in adult male Wistar rats. The COMT inhibitor was dosed orally over a range of doses and several sampling time points were chosen between 0 min and 300 min after drug administration (levodopa+carbidopa and COMT inhibitor). Blood samples were collected by cardiac puncture under CO2 anaesthesia into pre-cooled K2EDTA tubes and kept on ice until the separation of plasma by centrifugation. For levodopa analysis, 75 μl of separated plasma was pipetted without delay into pre-cooled polypropylene tubes containing a conserving agent. All the samples were stored at −80° C. nominal until analyzed. Plasma levels of levodopa were determined by LC-MS/MS (or HPLC). Standard pharmacokinetic methods were used to evaluate the concentration—time data by non-compartmental analysis modeling. The analyses were performed using WinNonlin® Professional v. 5.0.1.

Row | Compound | Relative levodopa concentration
1 | N#Cc1cc(O)c(O)c(C#N)c1Br [Example 1, 2-Bromo-4,5-dihydroxyisophthalonitrile] | 1.65
2 | N#Cc1cc(O)c(O)c(C#N)c1-c1ccco1 [Example 6, 2-(Furan-2-yl)-4,5-dihydroxyisophthalonitrile] | 1.64
3 | CC(C)S(=O)(=O)c1ccc(-c2c(C#N)cc(O)c(O)c2C#N)cc1 [Example 23, 3,4-Dihydroxy-4′-(isopropylsulfonyl)biphenyl-2,6-dicarbonitrile] | 1.34
4 | CC(C)(C)/C=C/c1c(C#N)cc(O)c(O)c1C#N [Example 28, (E)-2-(3,3-Dimethylbut-1-enyl)-4,5-dihydroxyisophthalonitrile] | 2.69
5 | N#Cc1cc(O)c(O)c(C#N)c1Cc1ccc(F)cc1 [Example 55, 2-(4-Fluorobenzyl)-4,5-dihydroxyisophthalonitrile] | 1.31
6 | N#Cc1cc(O)c(O)c(C#N)c1Cc1ccccc1F [Example 60, 2-(2-Fluorobenzyl)-4,5-dihydroxyisophthalonitrile] | 1.13
7 | CC(C)=Cc1c(C#N)cc(O)c(O)c1C#N [Example 87, 4,5-Dihydroxy-2-(2-methylprop-1-enyl)isophthalonitrile] | 1.51
8 | C=CCc1c(C#N)cc(O)c(O)c1C#N [Example 92, 2-Allyl-4,5-dihydroxyisophthalonitrile] | 1.42

biological target: T1, recombinant human soluble COMT (S-COMT) (Homo sapiens, UniProt P21964); test: COMT inhibiting activity in vitro, Assay 1 (fluorescence plate reader); format: biochemical; settings: Assay 1: 12 nM S-COMT, 60 min preincubation at 37° C., substrate esculetin, Morrison equation
T1 sequence (P21964 1-221 isoform P21964-2): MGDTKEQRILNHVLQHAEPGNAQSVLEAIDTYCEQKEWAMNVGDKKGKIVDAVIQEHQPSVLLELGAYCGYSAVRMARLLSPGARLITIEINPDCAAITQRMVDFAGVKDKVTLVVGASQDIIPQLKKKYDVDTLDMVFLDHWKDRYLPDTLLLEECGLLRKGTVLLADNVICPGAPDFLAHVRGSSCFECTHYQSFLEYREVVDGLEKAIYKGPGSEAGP
Method: (§1) The inhibitory potency was determined by measuring recombinant human soluble COMT (S-COMT) activity at various compound concentrations. COMT activity measurements were performed according to the method published in Kurkela, M. et al. Analytical Biochemistry, 331 (2004) 198 with slight modifications according to Assay 1 or Assay 2 described below.
Recombinant human S-COMT (12 nM) was preincubated with the COMT inhibitor and 400 μM S-adenosyl-L-methionine in 100 mM Na2HPO4 buffer, pH 7.4, containing 5 mM MgCl2 for 60 min at 37° C. The reaction was started with the addition of the substrate esculetin for a final concentration of […] and the production of O-methylated esculetin was followed with the FlexStation fluorescence plate reader ([…], USA) using excitation at 355 nm and emission at 460 nm. The inhibitor dissociation constant, Ki, of the studied compounds was calculated using the Morrison equation, which takes the tight binding inhibition into account (Copeland, R. A. Evaluation of Enzyme Inhibitors in Drug Discovery. A Guide for Medicinal Chemists and Pharmacologists, John Wiley & Sons, Inc., Hoboken, N.J., 2005, pp. 185-187):
[formula] wherein v0 and vi are the reaction velocities in the absence and presence, respectively, of the inhibitor, E is the active enzyme concentration, and I is the inhibitor concentration. The data were analyzed with GraphPad Prism version 4.00 software (GraphPad Software, San Diego, Calif., USA). Assay 2

Row | Compound | Ki
9 | N#Cc1cc(O)c(O)c(C#N)c1-c1cccs1 [Example 5, 4,5-Dihydroxy-2-(thiophen-2-yl)isophthalonitrile] | 0.84 nM
10 | CC(C)S(=O)(=O)c1ccc(-c2c(C#N)cc(O)c(O)c2C#N)cc1 [Example 23, 3,4-Dihydroxy-4′-(isopropylsulfonyl)biphenyl-2,6-dicarbonitrile] | 0.19 nM
11 | N#Cc1cc(O)c(O)c(C#N)c1-c1cccc(C(=O)O)c1 [Example 26, 2′,6′-Dicyano-3′,4′-dihydroxybiphenyl-3-carboxylic acid] | 0.12 nM
12 | N#Cc1cc(O)c(O)c(C#N)c1-c1ccc(CCC(=O)O)cc1 [Example 32, 3-(2′,6′-Dicyano-3′,4′-dihydroxybiphenyl-4-yl)propanoic acid] | 2 nM
13 | N#Cc1cc(O)c(O)c(C#N)c1-c1ccc(Cl)c(Cl)c1 [Example 38, 3′,4′-Dichloro-3,4-dihydroxybiphenyl-2,6-dicarbonitrile] | 9.5 nM
14 | N#Cc1cc(O)c(O)c(C#N)c1Cc1ccccc1 [Example 45, 2-Benzyl-4,5-dihydroxyisophthalonitrile] | 8.2 nM
15 | N#Cc1cc(O)c(O)c(C#N)c1C1=CCOCC1 [Example 74, 2-(3,6-Dihydro-2H-pyran-4-yl)-4,5-dihydroxyisophthalonitrile] | 2 nM
16 | N#Cc1cc(O)c(O)c(C#N)c1/C=C/C(=O)O [Example 76, (E)-3-(2,6-Dicyano-3,4-dihydroxyphenyl)acrylic acid] | 3.3 nM
17 | C=Cc1c(C#N)cc(O)c(O)c1C#N [Example 89, 4,5-Dihydroxy-2-vinylisophthalonitrile] | 2 nM
18 | CCN(CC)C(=O)c1cccc(-c2c(C#N)cc(O)c(O)c2C#N)c1 [Example 100, 2′,6′-Dicyano-N,N-diethyl-3′,4′-dihydroxybiphenyl-3-carboxamide] | 6.5 nM
19 | Cc1ccc(/C=C/c2c(C#N)cc(O)c(O)c2C#N)cc1 [Example 121, (E)-4,5-Dihydroxy-2-(4-methylstyryl)isophthalonitrile] | 18 nM
20 | N#Cc1cc(O)c(O)c(C#N)c1-c1ccc2cc(O)ccc2c1 [Example 122, 4,5-Dihydroxy-2-(6-hydroxynaphthalen-2-yl)isophthalonitrile] | 1.5 nM

Second part, the molecule after the results:

Row | Ki | Compound
21 | 3.2 nM | N#Cc1cc(O)c(O)c(C#N)c1CCCO [Example 187, 4,5-Dihydroxy-2-(3-hydroxypropyl)isophthalonitrile]
22 | 2.9 nM | N#Cc1cc(O)c(O)c(C#N)c1N1CCOCC1 [Example 191, 4,5-Dihydroxy-2-morpholinoisophthalonitrile]

biological target: T1, recombinant human soluble COMT (S-COMT); test: COMT inhibiting activity in vitro, Assay 2 (HPLC with fluorescence detection); format: biochemical; settings: Assay 2: 0.8 nM S-COMT, esculetin 0.5 μM, Morrison equation
Method: as §1
Recombinant human S-COMT (0.8 nM) was incubated with the COMT inhibitor and 200 μM S-adenosyl-L-methionine in 100 mM Na2HPO4 buffer, pH 7.4, containing 5 mM MgCl2 for 30 min at 37° C. The reaction was started with the addition of esculetin for a final concentration of 0.5 μM and the reaction mixture with total volume of 200 μl was incubated for 30 min at 37° C. The reaction was stopped with 20 μl of 4 M HClO4 and the precipitated protein was removed by Sirocco protein precipitation plate (centrifuged at 4° C. for 10 min at 3000 g). O-Methylated esculetin was detected by Waters HT Alliance HPLC setup with Waters 474 fluorescence detector (Ex […], Em 460 nm, Gain 100). The analytes were separated isocratically using 0.1 M Na2HPO4, 20 mM citric acid, 0.15 mM EDTA, pH 3.2, in 40% methanol as mobile phase and Waters Spherisorb ODS2 (3 μm, 4.6 mm×100 mm) column. O-Methylated esculetin concentrations were calculated based on the standard curve and the Ki values were calculated using the Morrison equation as in Assay 1.

Row | Compound | Ki
23 | N#Cc1cc(O)c(O)c(C#N)c1Cc1ccc(C(=O)O)cc1 [Example 118, 4-(2,6-Dicyano-3,4-dihydroxybenzyl)benzoic acid] | 0.33 nM
24 | COC(=O)CCc1ccc(Sc2c(C#N)cc(O)c(O)c2C#N)cc1 [Example 144, Methyl 3-(4-(2,6-dicyano-3,4-dihydroxyphenylthio)phenyl)propanoate] | 0.7 nM
25 | Cc1ccc(-c2c(C#N)cc(O)c(O)c2C#N)cc1 [Example 152, 3,4-Dihydroxy-4′-methylbiphenyl-2,6-dicarbonitrile] | 1.6 nM
26 | N#Cc1cc(O)c(O)c(C#N)c1Cc1ccc(CCC(=O)O)cc1 [Example 153, 3-(4-(2,6-Dicyano-3,4-dihydroxybenzyl)phenyl)propanoic acid] | 0.4 nM

The next lines start with the values.

Row | Ki | Compound
27 | 1.3 nM | N#Cc1cc(O)c(O)c(C#N)c1Cc1ccc(C(F)(F)F)cc1 [Example 154, 4,5-Dihydroxy-2-(4-(trifluoromethyl)benzyl)isophthalonitrile]
28 | 0.26 nM | Cc1ccc([S+]([O-])c2c(C#N)cc(O)c(O)c2C#N)cc1 (stereo not shown) [Example 156, 4,5-Dihydroxy-2-(p-tolylsulfinyl)isophthalonitrile]
29 | 0.53 nM | CCc1ccc(Sc2c(C#N)cc(O)c(O)c2C#N)cc1 [Example 158, 2-(4-Ethylphenylthio)-4,5-dihydroxyisophthalonitrile]
30 | 0.94 nM | N#Cc1cc(O)c(O)c(C#N)c1Sc1ccc(Cl)cc1 [Example 159, 2-(4-Chlorophenylthio)-4,5-dihydroxyisophthalonitrile]
31 | 0.7 nM | Cc1ccccc1Sc1c(C#N)cc(O)c(O)c1C#N [Example 160, 4,5-Dihydroxy-2-(o-tolylthio)isophthalonitrile]
32 | 0.3 nM | COC(=O)c1ccc(Sc2c(C#N)cc(O)c(O)c2C#N)cc1 [Example 161, Methyl 4-(2,6-dicyano-3,4-dihydroxyphenylthio)benzoate]
33 | 0.2 nM | N#Cc1cc(O)c(O)c(C#N)c1Sc1ccc(CC(=O)O)cc1 [Example 164, 2-(4-(2,6-Dicyano-3,4-dihydroxyphenylthio)phenyl)acetic acid]
34 | 0.3 nM | COc1ccc(Sc2c(C#N)cc(O)c(O)c2C#N)cc1 [Example 167, 4,5-Dihydroxy-2-(4-methoxyphenylthio)isophthalonitrile]
35 | 0.9 nM | N#Cc1cc(O)c(O)c(C#N)c1Sc1ccncc1 [Example 171, 4,5-Dihydroxy-2-(pyridin-4-ylthio)isophthalonitrile]
36 | 0.2 nM | N#Cc1cc(O)c(O)c(C#N)c1Sc1cccc(C(=O)O)c1 [Example 172, 3-(2,6-Dicyano-3,4-dihydroxyphenylthio)benzoic acid]
37 | 0.5 nM | N#Cc1cc(O)c(O)c(C#N)c1Sc1ccc2ccccc2c1 [Example 174, 4,5-Dihydroxy-2-(naphthalen-2-ylthio)isophthalonitrile]
38 | 0.8 nM | CC(=O)c1ccc(Oc2c(C#N)cc(O)c(O)c2C#N)cc1 [Example 177, 2-(4-Acetylphenoxy)-4,5-dihydroxyisophthalonitrile]
39 | 0.5 nM | Cc1ccc(Oc2c(C#N)cc(O)c(O)c2C#N)c(C)c1 [Example 180, 2-(2,4-Dimethylphenoxy)-4,5-dihydroxyisophthalonitrile]
40 | 0.1 nM | Cc1ccc(S(=O)(=O)c2c(C#N)cc(O)c(O)c2C#N)cc1 [Example 209, 4,5-Dihydroxy-2-tosylisophthalonitrile]
